{"source": "paper PMC11061149", "about": "“Protein mimetic 2D FAST rescues alpha synuclein aggregation mediated early and post disease Parkinson’s phenotypes” (Nature Communications, 2024)", "key": {"[1]": {"system": "HEK293 cells stably expressing αS-A53T-YFP", "test": "HEK cells transfected with αS aggregated with or without ligand: inclusions (ProteoStat dye, confocal)", "assay_type": "cell-based, human", "method": "The aggregation of endogenous monomeric αS-A53T-YFP into fibers can be detected by the intracellular fluorescent puncta (Fig. 3a, + αS). A solution of 100 μM αS was aggregated in the absence and presence of NS132 at an equimolar ratio for four days. The resulting solutions of αS fibers (5 μM in monomeric αS, ±NS132) were introduced to HEK cells in the presence of Lipofectamine 3000 for 24 h. In contrast to the control (no fibers), we observed a significant number of fluorescent inclusions in the presence of αS fibers (Fig. 3a, white arrows, +αS), which was a consequence of the templating of endogenous monomeric αS-A53T-YFP by the exogenously added αS fibers. […] Moreover, we observed the colocalization of an adaptor protein, p62, in the aggresome of αS inclusions in HEK cells (Fig. 3b, +αS, red),[51]–[54]. […] The autophagy machinery regulates many vital cellular processes and its impairment due to αS aggregation can lead to PD and other neurodegenerative disorders[51]–[54]. […] We also quantified the inclusions (αS-A53T-YFP) using a ProteoStat dye-based high throughput 96-well plate reader-based assay recently developed in our lab[24]. The ProteoStat dye-based intensity of HEK cells treated with αS fibers was ~4-5 fold higher than the control (no fibers) (Fig. 3c, +αS, black). […] Therefore, we used HEK cells to test the cytotoxicity of the aggregated solution of αS in the absence and presence of NS132 (Fig. 3d). The viability of HEK cells was measured using the (3-(4,5-dimethylthiazol-2-yl)-2,5-diphenyltetrazolium bromide) (MTT) reduction based assay.\nThe Lipofectamine solution was made fresh for each transfection to avoid possible denaturation of reagents in a stored stock solution. For each transfection protocol, the total volume of lipofectamine solution required is equivalent to 30% of the total volume of αS/lipofectamine solution needed. […]\nThis assay was performed based on a previous protocol with slight modifications. […] The resulting cell pellets were then homogenized, transferred into an autoclaved 1.7 mL microcentrifuge tube, and counted to normalize the data. […]"}, "[2]": {"system": "UA196 worms", "test": "ROS level in UA196 worms (H2DCFDA dye)", "assay_type": "in vivo, C. elegans", "method": "The worm strains were bleached at the same time and the eggs were incubated on PLATE 1. On day two, the worms were divided into two batches. One half of the worms were transferred (using M9 buffer) on PLATE 2 (without ligand) and the second half of the worms were transferred to PLATE 3 (with ligand). The concentration of the ligands was 50 µM as described in the main manuscript. On day four, the ligand (10–50 μM in M9 buffer with 0.1%-0.5% DMSO, v/v) was spotted again atop the PLATE 3 at 20 °C. The worms were incubated on PLATE 2 or PLATE 3 up to day eight at 20 °C in an incubator with constant humidity. On day eight, the worms were transferred into 1.7 mL microcentrifuge tubes using M9 buffer (1 mL) and washed with M9 buffer (1 mL and three times) by centrifugation for 2 min at 700xg and 20 °C. Subsequently, a total of 100 worms/well were transferred to a Costar 96-well black plate (Corning, Kennebunk, ME) containing 100 μL solution, including M9 buffer (89 μL), worm solution (10 μL and 100 worms), and 2’,7’-dichlorofluorescein diacetate (H2DCFDA) dye (1 μL, 50 μM, stock solution = 5 mM in cell culture grade DMSO, 99% pure). As a control, 99 μL of M9 buffer and 1 μL of 5 mM H2DCFDA reaction solution was placed in the wells. Subsequently, the Costar 96-well plate was gently shaken for 30 sec at 20 °C and the fluorescence intensity was measured (λex = 485 nm and λem = 530 nm) at multiple time points (0 to 120 min) using the Infinite M200 Pro Plate Reader (Tecan, Männedorf, Switzerland)[65],[89].\nFor confocal imaging, the same UA196 worms (in the absence and presence of ligands) used for the quantification of ROS, were transferred from the 96-well plate into PLATE 2, air-dried into the sterile laminar flow hood. The worms ( ~ 10 worms) were transferred to a cover slide containing an anesthetic (40 mM sodium azide) and mounted on a glass microscope slide containing 2% agarose pads for the confocal imaging as described in the previous sections. This experiment consisted of three biological replicates and each biological replicate consisted of three technical replicates."}, "[3]": {"target": "T1, αS fibers (Homo sapiens, UniProt P37840)", "T1 construct": "made in house; host or cells: E. coli BL21(DE3)", "test": "Transmission electron microscopy (TEM) of αS solutions", "assay_type": "biochemical", "method": "Transmission Electron Microscopy was used to visualize protein assemblies after aggregation experiments as previously described. Briefly, aliquots (5 μL) of αS solutions (with or without ligands) were applied on glow-discharged carbon-coated 300-mesh copper grids for 2 min and dried using Kimwipes (Kimberly-Clark, Irving, TX). The copper grids were negatively stained for 1 min with uranyl acetate (0.75%, w/v). The micrographs were taken on an FEI Tecnai G2 Biotwin TEM at 80 kV accelerating voltages."}}, "note": "Values joined by “and” are separate entries in the source; they are usually repeats but may differ in a detail not shown here. Equal values may be shown once."}
{"smiles": "Cc1ccc(NC(=O)c2ccc(NC(=O)c3ccc([N+](=O)[O-])c(NCCc4c[nH]c5ccccc45)n3)c(NCC3CCCCC3)n2)c(OCC(=O)O)n1", "note": "[NS132]", "values": [{"measurement": "intracellular αS-A53T-YFP inclusions (confocal), in words", "setting": "[1]; HEK293 cells transfected with αS aggregated in the presence of NS132", "value": "significant decrease"}, {"measurement": "ProteoStat intensity versus control (no fibers), in words", "setting": "[1]; HEK cells + 5 μM αS aggregated with equimolar NS132", "value": "did not observe a significant difference"}, {"measurement": "ProteoStat dye intensity (raw), individual experiments", "setting": "[1]; HEK cells + 5 μM αS fibers aggregated with equimolar NS132, 24 h", "value": "538 and 599 and 420 and 486 and 619 and 476 and 665 and 696 and 519 and 621 and 647 and 693"}, {"measurement": "intracellular ROS level in UA196 worms, in words", "setting": "[2]; 50 µM ligand on day two and four, day eight", "value": "low"}, {"measurement": "ROS dye signal, Average", "setting": "[2]; UA196+NS132, Time 0 min", "value": 169.8}, {"measurement": "ROS dye signal, Average", "setting": "[2]; UA196+NS132, Time 60 min", "value": 210.6}, {"measurement": "ROS dye signal, Average", "setting": "[2]; UA196+NS132, Time 120 min", "value": 301.6}, {"measurement": "αS fibers seen in TEM images, in words", "setting": "[3]; 100 µM αS aggregated for four days with ligand", "value": "did not observe αS fibers"}, {"measurement": "αS fibers seen in TEM images, in words", "setting": "[3]; fibers-catalyzed aggregation of αS, 60 h, equimolar NS132", "value": "significantly fewer αS fibers"}]}
